In patent US10155750B2, “Amidoethyl azole orexin receptor antagonists” (Merck Sharp & Dohme Corp., priority 2014, dated 2018):

How the values were obtained:
human orexin-2 receptor = human orexin-2 receptor (Homo sapiens (Human), UniProt O43614); experiment: FLIPR Ca2+ flux assay, hOX2R; type: cell-based; conditions: CHO cells expressing the receptor; agonist 70 pM Ala-6,12 human orexin-A
Experimental: The utility of the compounds in accordance with the present invention as orexin receptor OX1R and/or OX2R antagonists may be readily determined without undue experimentation by methodology well known in the art, including the “FLIPR Ca^2+ Flux Assay” (Okumura et al., Biochem. Biophys. Res. Comm. 280:976-981, 2001). In a typical experiment the OX1 and OX2 receptor antagonistic activity of the compounds of the present invention was determined in accordance with the following experimental method. For intracellular calcium measurements, Chinese hamster ovary (CHO) cells expressing the rat orexin-1 receptor or the human orexin-2 receptor, are grown in Iscove's modified DMEM containing 2 mM L-glutamine, […], 1% hypoxanthine-thymidine supplement, 100 U/ml penicillin, 100 μg/ml streptomycin and 10% heat-inactivated fetal calf serum (FCS). The cells are seeded at 20,000 cells/well into Becton-Dickinson black 384-well clear bottom sterile plates coated with poly-D-lysine. All reagents were from GIBCO-Invitrogen Corp. The seeded plates are incubated overnight at 37° C. and 5% CO2. Ala-6,12 human orexin-A as the agonist is prepared as a 1 mM stock solution in 1% bovine serum albumin (BSA) and diluted in assay buffer (HBSS containing 20 mM HEPES, 0.1% BSA and 2.5 mM probenecid, pH7.4) for use in the assay at a final concentration of 70 pM. Test compounds are prepared as 10 mM stock solution in DMSO, then diluted in 384-well plates, first in DMSO, then assay buffer. On the day of the assay, cells are washed 3 times with 100 μl assay buffer and then incubated for 60 min (37° C., 5% CO2) in 60 μl assay buffer containing 1 μM Fluo-4AM ester, 0.02% pluronic acid, and 1% BSA. The dye loading solution is then aspirated and cells are washed 3 times with 100 μl assay buffer. 30 μl of that same buffer is left in each well. Within the Fluorescent Imaging Plate Reader (FLIPR, Molecular Devices), test compounds are added to the plate in a volume of 25 μl, incubated for 5 min and finally 25 μl of agonist is added. Fluorescence is measured for each well at 1 second intervals for 5 minutes and the height of each fluorescence peak is compared to the height of the fluorescence peak induced by 70 pM Ala-6,12 orexin-A with buffer in place of antagonist. For each antagonist, IC50 value (the concentration of compound needed to inhibit 50% of the agonist response) is determined. Alternatively, compound potency can be assessed by a radioligand binding assay (described in Bergman et. al. Bioorg. Med. Chem. Lett. 2008, 18, 1425-1430) in which the inhibition constant (Ki) is determined in membranes prepared from CHO cells expressing either the OX1 or OX2 receptor. The intrinsic orexin receptor antagonist activity of a compound which may be used in the present invention may be determined by these assays.

[1] = biological target: hOX1R (orexin-1 receptor) (Homo sapiens, UniProt O43613); experiment: FLIPR Ca2+ flux assay, hOX1R; type: cell-based; conditions: CHO cells expressing the receptor; agonist 70 pM Ala-6,12 human orexin-A

Sequence of human orexin-2 receptor (O43614 whole entry): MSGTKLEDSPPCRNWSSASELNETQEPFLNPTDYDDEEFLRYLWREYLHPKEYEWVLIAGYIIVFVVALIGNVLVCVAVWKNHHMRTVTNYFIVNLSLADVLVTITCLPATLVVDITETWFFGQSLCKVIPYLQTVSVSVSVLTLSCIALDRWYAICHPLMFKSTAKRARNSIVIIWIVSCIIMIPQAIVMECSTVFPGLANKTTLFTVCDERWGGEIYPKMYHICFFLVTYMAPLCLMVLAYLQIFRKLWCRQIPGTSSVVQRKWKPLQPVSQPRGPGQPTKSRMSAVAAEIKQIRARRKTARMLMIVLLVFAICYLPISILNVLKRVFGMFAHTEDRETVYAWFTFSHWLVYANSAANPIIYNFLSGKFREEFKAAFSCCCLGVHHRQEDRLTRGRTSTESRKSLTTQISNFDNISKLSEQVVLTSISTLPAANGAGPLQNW

Compound	IC50 (human orexin-2 receptor) [nM]	IC50 [1] [nM]
CCN(CCn1nc(C)c(C(C)(C)O)n1)C(=O)c1ccccc1C1CCC1 [Example 40, 2-cyclobutyl-N-ethyl-N-(2-(4-(2-hydroxypropan-2-yl)-5-methyl-2H-1,2,3-triazol-2-yl)ethyl)benzamide]	13	1170
CCN(CCn1nc(C)c(C(C)(C)O)n1)C(=O)c1ccccc1N1CCCC1 [Example 41, N-ethyl-N-(2-(4-(2-hydroxypropan-2-yl)-5-methyl-2H-1,2,3-triazol-2-yl)ethyl)-2-(pyrrolidin-1-yl)benzamide]	15	2100
CCN(CCn1nc(C)c(C(C)(C)O)n1)C(=O)c1ccccc1-n1ncnn1 [Example 42, N-ethyl-N-(2-(4-(2-hydroxypropan-2-yl)-5-methyl-2H-1,2,3-triazol-2-yl)ethyl)-2-(2H-tetrazol-2-yl)benzamide]	29	> 10000
CCN(CCn1nc(C)c(C(C)(C)O)n1)C(=O)c1ncccc1-n1nccn1 [Example 43, N-ethyl-N-(2-(4-(2-hydroxypropan-2-yl)-5-methyl-2H-1,2,3-triazol-2-yl)ethyl)-3-(2H-1,2,3-triazol-2-yl)picolinamide]	180	> 10000
CCN(CCn1nc(C)c(C(C)(C)O)n1)C(=O)c1ncccc1-c1ccccc1 [Example 44, N-ethyl-N-(2-(4-(2-hydroxypropan-2-yl)-5-methyl-2H-1,2,3-triazol-2-yl)ethyl)-3-phenylpicolinamide]	106	> 10000
CCN(CCn1nc(C)c(C(C)(C)O)n1)C(=O)c1nccnc1-c1ccccn1 [Example 45, N-ethyl-N-(2-(4-(2-hydroxypropan-2-yl)-5-methyl-2H-1,2,3-triazol-2-yl)ethyl)-3-(pyridin-2-yl)pyrazine-2-carboxamide]	87	> 10000
CCN(CCn1nc(C)c(C(C)(C)O)n1)C(=O)c1nccnc1-n1cccn1 [Example 47, N-ethyl-N-(2-(4-(2-hydroxypropan-2-yl)-5-methyl-2H-1,2,3-triazol-2-yl)ethyl)-3-(1H-pyrazol-1-yl)pyrazine-2-carboxamide]	239	> 10000
CCN(CCn1nc(C)c(C(C)(C)O)n1)C(=O)c1cccnc1-n1cccn1 [Example 48, N-ethyl-N-(2-(4-(2-hydroxypropan-2-yl)-5-methyl-2H-1,2,3-triazol-2-yl)ethyl)-2-(1H-pyrazol-1-yl)nicotinamide]	13	7520
CCN(CCn1cc(C(C)(C)O)cn1)C(=O)c1ccccc1-n1nccn1 [Example 49, N-Ethyl-N-{2-[4-(1-hydroxy-1-methylethyl)-1H-pyrazol-1-yl]ethyl}-2-(2H-1,2,3-triazol-2-yl)benzamide]	35	> 10000
CCN(CCn1ccc(C(C)(C)O)n1)C(=O)c1ccccc1-n1nccn1 [Example 50, N-Ethyl-N-{2-[3-(1-hydroxy-1-methylethyl)-1H-pyrazol-1-yl]ethyl}-2-(2H-1,2,3-triazol-2-yl)benzamide]	23	> 10000
